Reference: patent publication US11026423B2, “Herbicidal compositions and methods” (SePRO Corporation, priority 2013, dated 2021)

Key:
[1] = test system: hare barley, annual sowthistle, black medic, chickweed, and redstem filaree; test: Example 12 Arbuckle almond orchard: weed control; assay type: in vivo; settings: approximately 1, 2 and 3 months after treatment
Experimental: (§1) A field trial was conducted in northern California for weed control and safety in one peach orchand and two almond orchards. The herbicide applications were made between January and February when the tree crops were dormant.
Weed control and crop safety were evaluated at approximately 1, 2, and 3 months after treatment. Weed pressure was fairly heavy, and uniform over the trial site. Populations of hare barley, annual sowthistle, black medic, chickweed, and redstem filaree were recorded.

hairy fleabane [2] = test: Example 8 Elderwood orange orchard: hairy fleabane control; assay type: in vivo
Experimental: (§2) A field trial was conducted in California to evaluate tolerance of non-bearing “Cara Cara” orange (Citrus sinensis) to fluridone and the efficacy of fluridone in an irrigated orchard environment. The trial was initiated in the month of January in Elderwood, Calif. The soil on the trial site was classified as a clay. […] Rainfall (0.44 in. (about 1.12 cm)) that occurred in the first week following PRE application incorporated the herbicides into the soil. The site was irrigated as needed during the growing season to avoid drought conditions. Visual evaluations of crop injury and weed density were made on a 0 to 100% scale. Additionally, plant counts per plot of weed species present were conducted for each evaluation period.

[3] = test system: sprangletop (Leptochloa sp.); test: Example 6 Shafter almond orchard: sprangletop control; assay type: in vivo; settings: 211 DAT, three highest rates of fluridone
Experimental: (§3) Field trials were conducted in California to determine sweet almond (Prunus dulcis) tolerance to fluridone and efficacy of fluridone in an irrigated orchard environment. Trial locations included a two-year old almond stand in Kerman, Calif. and a six-year old stand in Shafter, Calif. The soil in both locations is classified as a sandy loam. Applications prior to emergence of weeds (PRE) of herbicides were made in the month of January in Kerman and in the month of January in Shafter. […] Rainfall (0.32 in (about 0.813 cm)) and irrigation (1.5 in (about 3.81 cm)) one day after PRE applications were used to incorporate herbicides into the soil at the Kerman and Shafter locations, respectively. Both sites were irrigated as needed during the growing season to avoid drought conditions. Visual evaluations of crop injury and weed control were made monthly on a 0 to 100% scale. Postemergent (POST) broadcast applications of a non-selective, contact herbicide was broadcast across all treatments in Kerman prior to the 90 days after treatment and 119 days after treatment (DAT) ratings. Thus, data from those ratings dates was not evaluated. No POST applications were made in Shafter.

[4] = test system: weeds (total weed control); test: Example 10 irrigated walnut, Stockton, Calif.: total weed control; assay type: in vivo; settings: fluridone 0.2 to 0.4 lb/ac
Experimental: An experiment with walnut was conducted during the months of December to the month of June the following year in Stockton, Calif. Plots were arranged as a randomized complete block with three replicates. Plots were 8 ft×8 ft (about 2.43 meters by meters)(1 tree/plot). The soil on the site is classified as a clay loam. […] The site received approximately four inches (about 10.16 cm) of rainfall in the first 35 DAT, and an additional 2.9 inches (about 7.366 cm) rainfall and 6.5 inches (about 16.51 cm) irrigation the next 124 days thereafter. Visually evaluations of weed control were made monthly on a 0 to 100% scale.

weeds in walnut orchard = test: Example 11 walnut orchard field trial: weed efficacy; assay type: in vivo
Experimental: A field trial was performed in a dormant 4th year walnut orchard (Chandler variety) located near Stockton, Calif. The trial was initiated in December for weed efficacy studies and crop tolerance studies. Plots were about 8 feet by about 18 feet (about 2.43 meters by about 5.49 meters) with one tree per plot arranged in a randomized complete block design with three replications. Fluridone, flumioxazin, Roundup, and glufosinate ammonium were tested.

Palmer amaranth = test: Example 10 dryland cotton field, Jackson, Tenn.: Palmer amaranth control; assay type: in vivo, Amaranthus palmeri; settings: fluridone 0.1 to 0.5 lb/ac
Experimental: An experiment with cotton was conducted during the months of April to the month of June in Jackson, Tenn. Plots were arranged as a randomized complete block with four replicates. Plots were 6.3 ft by 30 ft (about 1.92 meteres by about 9.114 meters). The soil on the site was classified as a silt loam soil. […] The site received approximately four inches (about 10.16 cm) of rainfall in the first 35 days after treatment (DAT). Visually evaluations of Palmer amaranth control were made twice a month on a 0 to 100% scale.

[5] = test system: spotted spurge (Euphorbia maculate); test: Example 6 Shafter almond orchard: spotted spurge control; assay type: in vivo; settings: 211 DAT, fluridone 0.4 and 0.8 lb/ac
Experimental: as §3

[6] = test system: yellow nutsedge (Cyperus esculentus L.); test: Example 6 Kerman almond orchard: yellow nutsedge control; assay type: in vivo; settings: 184 DAT, 0.4 and 0.8 lb fluridone/ac
Experimental: as §3

[7] = test system: witchgrass (Panicum capillare L.); test: Example 8 Elderwood orange orchard: witchgrass control; assay type: in vivo; settings: 168 DAT, three highest fluridone rates; indaziflam
Experimental: as §2

hairy fleabane [8] = test: Example 6 Shafter almond orchard: hairy fleabane control; assay type: in vivo, Conyza bonariensis; settings: 211 DAT, fluridone 0.4 and 0.8 lb/ac
Experimental: as §3

[9] = test system: Palmer amaranth (Amaranthus palmeri); test: Example 9 greenhouse: preemergence Palmer amaranth control under varying irrigation; assay type: in vivo; settings: fluridone 0.2 lb/ac, coarse sand soil, irrigation 0 to 1.0 inch
Experimental: An experiment was conducted beginning in the month of August in a greenhouse. The greenhouse was arranged as a randomized complete block with four replicates. A coarse sand soil was used to fill four inch diameter pots. […] Overhead irrigation occurred eight and 10 days after treatment, applying an additional 0.25 inch (abou 0.635 cm) of water to each pot. Palmer amaranth control was determined by counting seedlings in each pot weekly.

[10] = test system: crabgrass (Digitaria spp.); test: Example 6 Kerman almond orchard: crabgrass control; assay type: in vivo; settings: 184 DAT, 0.4 and 0.8 lb fluridone/ac
Experimental: as §3

weeds = test: Example 12 UC Davis almond orchard: weed control; assay type: in vivo; settings: 1 to 5 months after treatment, all treatment rates
Experimental: as §1

yellow nutsedge = test: Example 6 Shafter almond orchard: yellow nutsedge control; assay type: in vivo, Cyperus esculentus L.
Experimental: as §3

[11] = test system: redmaids (Calandrinia sp.); test: Example 7 Kerman vineyard: redmaids control; assay type: in vivo; settings: 58 DAT, fluridone 0.2, 0.4 and 0.8 lb/ac
Text: (§4) Trials were placed in grape vineyards located in Kerman and Kingsburg, Calif. The soil in both locations is classified as a sandy loam. Preemergent herbicide applications were made in the month of January in Kerman and in the month of March in Kingsburg. […] Additionally, indaziflam applied at 0.065 lb/ac was included at the Kingsburg site. […] Both sites were irrigated as needed during the growing season to avoid drought conditions. Visual evaluations of crop injury and weed control were made monthly on a 0 to 100% scale. Cultivation occurred in the row centers at the Kerman location following the 58 DAT evaluations, and therefore, the Kerman results following 58 DAT were not evaluated. No cultivation occurred in Kingsburg during the trial period.

[12] = test system: prostrate spurge (Euphorbia supine Raf.); test: Example 8 Elderwood orange orchard: prostrate spurge control; assay type: in vivo; settings: 168 DAT, PRE
Experimental: as §2

[13] = test system: 'Thompson' grape (Vitis vinifera); test: Example 7 field trials: grape tolerance; assay type: in vivo; settings: PRE application, Kerman and Kingsburg
Text: as §4

[14] = test system: "Cara Cara" orange (Citrus sinensis); test: Example 8 field trial: orange tolerance; assay type: in vivo; settings: Elderwood, PRE application, trial period
cotton plants [15] = test: Pot demonstration of safening in cotton (FIG. 4); assay type: in vivo; settings: three cotton plants planted, flumioxazin only (FIG. 4)
Text: Flumioxazin is another herbicide member of the PPO-inhibitor class that is commonly applied pre-emergent to control weeds, and has the chemical name 2-[7-fluoro-3,4-dihydro-3-oxo-4-(2-propynyl)-2H-1,4-benzoxazin-6-yl]-4,5,6,7-tetrahydro-1H-isoindole-1,3(2H)-dione. In certain embodiments of the present invention, flumioxazin can be applied to soil at a rate of about 0.015 pounds per acre to about 0.25 pounds per acre. In other embodiments, flumioxazin can be applied to soil at a rate of about 0.03 pounds per acre to about 0.25 pounds per acre. In another embodiment, flumioxazin can be applied to soil at a rate of about […] to about 0.2 pounds per acre.

cotton plants [16] = test: Example 3 growth chamber trial, pre-emergent application on cotton; assay type: in vivo
Experimental: 0.1 L conical assay tubes were planted with a cotton or soybean seed in a sample of sandy loam soil. Seven tubes were prepared for each herbicide application rate. Application of a herbicide composition was performed after planting the seed and prior to the plant's emergence from the soil (i.e., pre-emergent or PRE). Approximately 0.15 inches of water was applied to each pot four hours after application. […] The greenhouse was maintained at 26±5° C. during the day and 11±1° C. during the night.

[17] = test system: sweet almond (Prunus dulcis); test: Example 6 field trials: almond tolerance; assay type: in vivo; settings: Kerman, any PRE herbicide application
Experimental: as §3

P. amaranth [18] = test: Greenhouse trial: P. amaranth control across soil types and moisture conditions; assay type: in vivo, Amaranthus palmeri; settings: low moisture conditions across some soil types
Text: In addition to these field trials, greenhouse studies were also undertaken. The greenhouse studies evaluated the use of fluridone, fomesafen, and the combination of fluridone and fomesafen as well as the affect of soil types, and moisture conditions. Four soil types were examined: a predominantly clay soil, a sandy loam soil, a loamy peat soil, and a sandy soil. The moisture conditions evaluated were at 0.2 inches of water, and 1.5 inches of water.

cotton [19] = test: May field trial: phytotoxicity to cotton; settings: May planting field trial, pre-emergent, 1 and 9 weeks post treatment
Experimental: (§5) Cotton was planted in fields in May. The field was then over seeded with P. amaranth. […] Within 24 hours of application of the herbicide, 0.25 inches of rain was recorded. An additional planting of cotton, by hand, was conducted in August with multiple rates.

cotton [20] = test: Greenhouse trial: cotton response across soil types and moisture conditions; assay type: in vivo
Text: In addition to these field trials, greenhouse studies were also undertaken. […] Four soil types were examined: a predominantly clay soil, a sandy loam soil, a loamy peat soil, and a sandy soil.

P. amaranth [21] = test: May field trial: weed control in cotton field; assay type: in vivo, Amaranthus palmeri; settings: May planting field trial, pre-emergent, 1 and 9 weeks post treatment
Experimental: as §5

1-methyl-3-phenyl-5-[3-(trifluromethyl)phenyl]-4(1H)-pyridone [fluridone]
control of all weeds present [1]: ~100%
hairy fleabane control (hairy fleabane [2]): Neither fluridone nor indaziflam effectively controlled
sprangletop control compared to flumioxazin [3]: significantly greater control than flumioxazin
total weed control [4]: good total weed control
weeds observed in plots (weeds in walnut orchard; 129 DAT, lower rates): Some weeds were observed
weeds observed in plots (weeds in walnut orchard; 159 DAT, fluridone applied at lower rates): lambsquarter, bindweed, spurge and knotweed were observed
Palmer amaranth control (Palmer amaranth): good control of Palmer amaranth
spotted spurge control compared to 0.1 and 0.2 lb fluridone/ac [5]: significantly greater control
yellow nutsedge control compared to flumioxazin [6]: similar
control of witchgrass [7]: 100%
hairy fleabane control compared to 0.1 and 0.2 lb fluridone/ac (hairy fleabane [8]): significantly greater control
preemergent Palmer amaranth control vs amount of irrigation [9]: increasing the amount of irrigation increases preemergent control
crabgrass control greater than flumioxazin [10]: 10%
weed control (weeds): good weed control
yellow nutsedge control compared to 0.1 and 0.2 lb fluridone/ac (yellow nutsedge; 211 DAT, fluridone 0.4 and 0.8 lb/ac): significantly greater control
yellow nutsedge control compared to flumioxazin (yellow nutsedge; fluridone applied at every rate): significantly greater than flumioxazin
redmaids control greater than flumioxazin [11]: 13.5%

Cc1ccc2c(c1)[C@H](Nc1nc(N)nc(C(C)F)n1)[C@@H](C)C2 (mixture of isomers) [indaziflam, N-[(1R,2S)-2,3-dihydro-2,6-dimethyl-1H-inden-1-yl]-6-[(1RS)-1-fluoroethyl]-1,3,5-triazine-2,4-diamine]
hairy fleabane control (hairy fleabane [2]): Neither fluridone nor indaziflam effectively controlled
prostrate spurge control [12]: 95%
phytotoxicity [13]: Phytotoxicity was not observed
control of witchgrass [7]: 100%
phytotoxicity [14]: did not contribute to phytotoxicity

C#CCN1C(=O)COc2cc(F)c(N3C(=O)C4=C(CCCC4)C3=O)cc21 [flumioxazin, 2-[7-fluoro-3,4-dihydro-3-oxo-4-(2-propynyl)-2H-1,4-benzoxazin-6-yl]-4,5,6,7-tetrahydro-1H-isoindole-1,3(2H)-dione]
emergence of cotton plants from the soil (cotton plants [15]): only one emerged from the soil
weeds observed in plots (weeds in walnut orchard; 129 DAT, lower rates): Some weeds were observed
crop stand (number of viable plants) (cotton plants [16]; 0.05 lb/A flumioxazin, seven tubes): one surviving plants out of seven
growth stage / growth stunting (cotton plants [16]; 26 days after treatment, flumioxazin 0.05 lb/A, scale 0-3): the most growth stunting
injury to cotton plants (cotton plants [16]; application rates greater than 0.025 lb/A flumioxazin): significantly injured
cotyledons with excessive wrinkling and brown spotting due to herbicide injury (cotton plants [16]; flumioxazin alone 0.05 lb/A, 26 days after treatment): all of the cotyledons show brown spotting
lethality to cotton plants (cotton plants [16]; flumioxazin at the highest rates (FIG. 15)): fatal to cotton plants
phytotoxicity [13]: Phytotoxicity was not observed
phytotoxicity [17]: Phytotoxicity was not observed

CS(=O)(=O)NC(=O)c1cc(Oc2ccc(C(F)(F)F)cc2Cl)ccc1[N+](=O)[O-] [fomesafen, 5-[2-chloro-4-(trifluoromethyl)phenoxy]-N-(methylsulfonyl)-2-nitrobenzamide]
P. amaranth control (P. amaranth [18]): not able to provide complete P. amaranth control
phytotoxicity (cotton [19]): no phytotoxicity was observed
growth of treated cotton plants (cotton [20]; 4 weeks after planting (FIG. 3A, 3B)): stunting effect on cotton
stunting (cotton [20]; less than ideal growing conditions, compared to fluridone and fluridone/fomesafen treatments): some stunting was observed
control of P. amaranth (P. amaranth [21]): showed control of P. amaranth
